For 7 compounds, IC50 results are on record in US20260297081A1, “COMPOUNDS AND METHODS OF TREATING CANCERS” (Cullgen Inc., priority 2023, published 2026).

The assay deals with MCF7 cells. The experiment in a line: Anti-proliferation (viability) of MCF7 cells (Table 7, FIG. 2B). Type of assay: cell-based. Particulars: Homo sapiens, MCF7, MCF7 cells, 3-6 days, 10-point serial dilution; read-out: GI IC50 in MCF-7.

Regarding `CNc1ccc(C(=O)Nc2ccc(N(C)C)nn2)c(NC2CC(C(=O)NC3CCC4(CC3)CCN(c3ccc(Nc5ncc6c(C)c(C(C)=O)c(=O)n(C7CCCC7)c6n5)nc3)CC4)C2)n1` (stereo not shown) [CPD-388, 2-((3-((3-(6-((6-acetyl-8-cyclopentyl-5-methyl-7-oxo-7,8-dihydropyrido[2,3-d]pyrimidin-2-yl)amino)pyridin-3-yl)-3-azaspiro[5.5]undecan-9-yl)carbamoyl)cyclobutyl)amino)-N-(6-(dimethylamino)pyridazin-3-yl)-6-(methylamino)nicotinamide], the half-maximal inhibitory concentration (IC50) is over 100 nM.

On to `CC(=O)c1c(C)c2cnc(Nc3ccc(C4CCC(NCC(=O)N5CCC(Nc6nc(NC(C)C)ccc6C(=O)Nc6ccc(N(C)C)nn6)CC5)CC4)cn3)nc2n(C2CCCC2)c1=O` (stereo not shown) [CPD-389, 2-((1-((4-(6-((6-acetyl-8-cyclopentyl-5-methyl-7-oxo-7,8-dihydropyrido[2,3-d]pyrimidin-2-yl)amino)pyridin-3-yl)cyclohexyl)glycyl)piperidin-4-yl)amino)-N-(6-(dimethylamino)pyridazin-3-yl)-6-(isopropylamino)nicotinamide], for which the 50% inhibitory concentration (IC50) was over 100 nM.

Consider `CC(=O)c1c(C)c2cnc(Nc3ccc(N4CCC(N5CC(C(=O)N6CCC(Nc7nc(NC(C)C)ccc7C(=O)Nc7ccc(N(C)C)nn7)CC6)C5)CC4)cn3)nc2n(C2CCCC2)c1=O` [CPD-390, 2-((1-(1-(1-(6-((6-acetyl-8-cyclopentyl-5-methyl-7-oxo-7,8-dihydropyrido[2,3-d]pyrimidin-2-yl)amino)pyridin-3-yl)piperidin-4-yl)azetidine-3-carbonyl)piperidin-4-yl)amino)-N-(6-(dimethylamino)pyridazin-3-yl)-6-(isopropylamino)nicotinamide], for which the concentration for half-maximal inhibition (IC50) was over 100 nM.

For `CC(=O)c1c(C)c2cnc(Nc3ccc(N4CCC(N5CC(C(=O)N6CC7(CC(Nc8nc(NC(C)C)ccc8C(=O)Nc8ccc(N(C)C)nn8)C7)C6)C5)CC4)cn3)nc2n(C2CCCC2)c1=O` [CPD-391, 2-((2-(1-(1-(6-((6-acetyl-8-cyclopentyl-5-methyl-7-oxo-7,8-dihydropyrido[2,3-d]pyrimidin-2-yl)amino)pyridin-3-yl)piperidin-4-yl)azetidine-3-carbonyl)-2-azaspiro[3.3]heptan-6-yl)amino)-N-(6-(dimethylamino)pyridazin-3-yl)-6-(isopropylamino)nicotinamide], the IC50 is over 100 nM.

Consider `CC(=O)c1c(C)c2cnc(Nc3ccc(CN4CCC(CC(=O)N5CCC(Nc6nc(NC(C)C)ccc6C(=O)Nc6ccc(N(C)C)nn6)CC5)CC4)cn3)nc2n(C2CCCC2)c1=O` [CPD-392, 2-((1-(2-(1-((6-((6-acetyl-8-cyclopentyl-5-methyl-7-oxo-7,8-dihydropyrido[2,3-d]pyrimidin-2-yl)amino)pyridin-3-yl)methyl)piperidin-4-yl)acetyl)piperidin-4-yl)amino)-N-(6-(dimethylamino)pyridazin-3-yl)-6-(isopropylamino)nicotinamide], for which the IC50 was over 100 nM.

For the compound `CC(=O)c1c(C)c2cnc(Nc3ccc(N4CCC(N5CC(C(=O)NC6CC7(C6)CC(Nc6nc(NC(C)C)ccc6C(=O)Nc6ccc(N(C)C)nn6)C7)C5)CC4)cn3)nc2n(C2CCCC2)c1=O` (stereo not shown) [CPD-393, 2-((6-(1-(1-(6-((6-acetyl-8-cyclopentyl-5-methyl-7-oxo-7,8-dihydropyrido[2,3-d]pyrimidin-2-yl)amino)pyridin-3-yl)piperidin-4-yl)azetidine-3-carboxamido)spiro[3.3]heptan-2-yl)amino)-N-(6-(dimethylamino)pyridazin-3-yl)-6-(isopropylamino)nicotinamide], the IC50 was in the range of 50 to 100 nM.

`CC(=O)c1c(C)c2cnc(Nc3ccc(N4CCC(N5CCC(C(=O)N6CC(Nc7nc(NC(C)C)ccc7C(=O)Nc7ccc(N(C)C)nn7)C6)C5)CC4)cn3)nc2n(C2CCCC2)c1=O` (stereo not shown) [CPD-394, 2-((1-(1-(1-(6-((6-acetyl-8-cyclopentyl-5-methyl-7-oxo-7,8-dihydropyrido[2,3-d]pyrimidin-2-yl)amino)pyridin-3-yl)piperidin-4-yl)pyrrolidine-3-carbonyl)azetidin-3-yl)amino)-N-(6-(dimethylamino)pyridazin-3-yl)-6-(isopropylamino)nicotinamide]: the 50% inhibitory concentration (IC50) was over 100 nM.
